According to patent US6741954B2, “Selection method for odorants” (Symrise GmbH & Co. KG, priority 2000, dated 2004):
Read-outs that look alike come from different tables or passages of the source.

Key:
Format in all cases: physicochemical
[1] = Headspace above the wet washed hair: relative partition parameter headspace/shampoo (SPME-GC)
Protocol: (§1) The procedure is analogous in all examples.
The example reflects the scent impression, which is perceived from freshly washed hair. The shampoo is prepared as is generally customary. The mixture of 39 odorants is incorporated into the above-mentioned shampoo (1st) in an amount of 1%. A hair tress (2.5 g) is washed in 100 ml of a 20% shampoo solution in water by immersing 5-10 times and stirring, and then rinsed in 100 ml of clear water by immersing it three times. The hair tress is carefully patted with thin cellulose. The moist hair tress is transferred to a 100 ml Erlenmeyer flask sealed with a septum and left to stand for 3 h. The headspace above the washed and rinsed hair tress is extracted over 15 min using solid phase microextraction (SPME). The SPME needle is desorbed in a GC injector, and a gas chromatogram is recorded. […] The analytical results are then used mathematically as described above.

[2] = Headspace above the washing powder: relative partition parameter (SPME-GC)
Protocol: as §1
The example reflects the scent impression, which is perceived from a freshly opened pack of laundry detergent. The mixture of 39 odorants is incorporated in the above-mentioned washing powder in an amount of 0.5%. 20 g of the washing powder are transferred to a 100 ml Erlenmeyer flask sealed with a septum. The headspace above the shampoo is extracted using a SPME over 15 min. […] The analytical results are then used mathematically as described above.

[3] = Headspace above the shampoo: relative partition parameter (SPME-GC); details: log of amount in headspace relative to amount in shampoo; 1% odorant mixture, SPME 15 min
Protocol: as §1
The example reflects the scent impression, which is perceived from a freshly opened bottle of shampoo. The mixture of 39 odorants is incorporated into the above-mentioned shampoo (1) in an amount of 1%. 20 g of the shampoo are transferred to a 100 ml Erlenmeyer flask sealed with a septum. The headspace above the shampoo is extracted using a SPME over 15 min. […] The analytical results are then used mathematically as described above.

[4] = Headspace above the candle wax: relative partition parameter (SPME-GC); details: log of amount in headspace relative to amount in candle wax; 5% odorant mixture, grated nonburning candle, SPME 15 min
Protocol: as §1
The example reflects the scent impression, which is perceived from a nonburning candle. The mixture of 39 odorants is incorporated into a candle in an amount of 5%. 20 g of the grated candle are transferred to a 100 ml Erlenmeyer flask sealed with a septum. The headspace above the candle is extracted using a SPME over 15 min. […] The analytical results are then used mathematically as described above.

[5] = Headspace above the fresh gel room air freshener: relative partition parameter (SPME-GC); details: log of amount in headspace relative to amount in gel; 5% odorant mixture, 10 liter vessel, 1 h, SPME 15 min
Protocol: as §1
The example reflects the scent impression, which is perceived above a fresh gel room air freshener. The mixture of 39 odorants is incorporated into an air freshener in an amount of 5%. 100 g of the air freshener are placed in its customary presentation form in a large sealed 10 liter vessel. The air freshener is left to stand for one hour. The headspace above the air freshener is extracted using a SPME over 15 min. […] The analytical results are then used mathematically as described above.

[6] = Headspace above the soap bar: relative partition parameter (SPME-GC)
Protocol: as §1
The example reflects the scent impression, which is perceived from a fresh bar of soap. […] 20 g of the grated soap are transferred to a 100 ml Erlenmeyer flask sealed with a septum. The headspace above the shampoo is extracted using a SPME over 15 min. […] The analytical results are then used mathematically as described above.

[7] = Headspace above the solution of WC scented block cleaner: relative partition parameter (SPME-GC); details: log of amount in headspace above 1% solution in water relative to amount in WC block; 1% odorant mixture, SPME 15 min
Protocol: as §1
The example reflects the scent impression, which is perceived from a WC scented block cleaner. The mixture of 39 odorants is incorporated into the toilet block in an amount of 1%. A 1% solution of the toilet block in water is prepared. 20 ml of this solution are transferred to a 100 ml Erlenmeyer flask sealed with a septum. The headspace above the shampoo is extracted by means of a SPME over 15 min. […] The analytical results are then used mathematically as described above.

[8] = log of amount in headspace above wet washed hair relative to amount in shampoo, 1% odorant mixture, 3 h standing, SPME 15 min
[9] = log of amount in headspace relative to amount in washing powder, 0.5% odorant mixture, SPME 15 min
[10] = log of amount in headspace relative to amount in soap, 1.2% odorant mixture, grated soap, SPME 15 min

| Compound | Activity (logarithmic partition parameter above wet hair) [1, 8] | Activity (logarithmic partition parameter above washing powder) [2, 9] | Activity (logarithmic partition parameter above shampoo) [3] | Activity (logarithmic partition parameter above candle wax) [4] | Activity (logarithmic partition parameter above gel room air fresheners) [5] | Activity (logarithmic partition parameter above soap) [6, 10] | Activity (logarithmic partition parameter above dissolved WC scented block cleaners) [7] | Activity (logarithmic partition parameter above wet hair) [1] | Activity (logarithmic partition parameter above washing powder) [2] | Activity (logarithmic partition parameter above soap) [6] |
| --- | --- | --- | --- | --- | --- | --- | --- | --- | --- | --- |
| CC(C=O)Cc1ccc(C(C)(C)C)cc1 (stereo not shown) [Lilial] | −2.089 | −1.448 | −1.900 | −2.105 | −1.548 | −1.331 | −1.400 | – | – | – |
| CC(=O)OC(C)c1ccccc1 (stereo not shown) [Styrolyl acetate] | −1.029 | 0.246 | −0.232 | −0.341 | 0.568 | 0.486 | −1.320 | – | – | – |
| CC(=O)OC(C)(C)C1CC=C(C)CC1 (stereo not shown) [Terpinyl acetate] | – | – | −0.561 | −0.979 | −0.029 | – | −0.524 | −1.135 | −0.196 | −0.253 |
| CC1=CCC2CC1C2(C)C (stereo not drawn) [alpha-Pinene] | −0.776 | 0.377 | 0.769 | 0.819 | −0.273 | 0.395 | −1.833 | – | – | – |
| C=C1CCC2CC1C2(C)C (stereo not drawn) [beta-Pinene] | −0.647 | 0.415 | 0.830 | 0.701 | −0.090 | 0.469 | −1.682 | – | – | – |
| CC1=CCC(C(C)C)=CC1 [gamma-Terpinene] | −0.074 | 0.771 | 1.009 | 0.342 | 0.126 | 0.819 | −1.230 | – | – | – |
| Caryophyllene | – | – | −0.279 | −1.062 | −0.011 | – | −0.390 | −1.080 | −0.385 | −0.150 |

Continued, in another order:

| Activity (logarithmic partition parameter above wet hair) [1, 8] | Activity (logarithmic partition parameter above washing powder) [2, 9] | Activity (logarithmic partition parameter above shampoo) [3] | Activity (logarithmic partition parameter above candle wax) [4] | Activity (logarithmic partition parameter above gel room air fresheners) [5] | Activity (logarithmic partition parameter above soap) [6, 10] | Activity (logarithmic partition parameter above dissolved WC scented block cleaners) [7] | Compound | Activity (logarithmic partition parameter above wet hair) [1] | Activity (logarithmic partition parameter above washing powder) [2] | Activity (logarithmic partition parameter above soap) [6] |
| --- | --- | --- | --- | --- | --- | --- | --- | --- | --- | --- |
| −1.119 | 0.057 | −0.511 | −0.420 | 0.376 | −0.028 | −1.299 | C=CC(C)(O)CCC=C(C)C (stereo not shown) [Linalool] | – | – | – |
| −1.349 | −0.176 | −0.742 | −0.632 | 0.245 | 0.170 | −1.636 | OCCc1ccccc1 [PEA, phenylethyl alcohol] | – | – | – |
| −0.299 | 1.167 | 0.844 | 0.726 | 0.674 | 1.180 | −1.070 | CC(=O)OCC=C(C)C [Prenyl acetate] | – | – | – |
